# Counter-ions that a name gives are not always drawn.
# Target: human GABA A receptor α5β3γ2 (α5 subunit) (Homo sapiens, UniProt P18507+P31644)
# Assay: biochemical
# Assay type: binding
# Conditions: competition for [3H]flumazenil binding, HEK293 cells transiently expressing human receptors; means of two determinations; read-out: hKi
# Procedure: The affinity of compounds at GABA A receptor subtypes was measured by competition for [3H]flumazenil (85 Ci/mmol; Roche) binding to HEK293 cells expressing rat (stably transfected) or human (transiently transfected) receptors of composition α1β3γ2, α2β3γ2, α3β3γ2 and α5β3γ2.
# Cell pellets were suspended in Krebs-tris buffer (4.8 mM KCl, 1.2 mM CaCl2, 1.2 mM MgCl2, 120 mM NaCl, 15 mM Tris; pH 7.5; binding assay buffer), homogenized by polytron for ca. 20 sec on ice and centrifuged for 60 min at 4° C. (50000 g; Sorvall, rotor: SM24=20000 rpm). The cell pellets were resuspended in Krebs-tris buffer and homogenized by polytron for ca. 15 sec on ice. Protein was measured (Bradford method, Bio-Rad) and aliquots of 1 mL were prepared and stored at −80° C.
# Assays were incubated to equilibrium for 1 hour at 4° C. and harvested onto GF/C uni-filters (Packard) by filtration using a Packard harvester and washing with ice-cold wash buffer (50 mM Tris; pH 7.5). After drying, filter-retained radioactivity was detected by liquid scintillation counting. Ki values were calculated using Excel-Fit (Microsoft) and are the means of two determinations.
# Chain of human GABA A receptor α5β3γ2 (α5 subunit) (P31644 32-462): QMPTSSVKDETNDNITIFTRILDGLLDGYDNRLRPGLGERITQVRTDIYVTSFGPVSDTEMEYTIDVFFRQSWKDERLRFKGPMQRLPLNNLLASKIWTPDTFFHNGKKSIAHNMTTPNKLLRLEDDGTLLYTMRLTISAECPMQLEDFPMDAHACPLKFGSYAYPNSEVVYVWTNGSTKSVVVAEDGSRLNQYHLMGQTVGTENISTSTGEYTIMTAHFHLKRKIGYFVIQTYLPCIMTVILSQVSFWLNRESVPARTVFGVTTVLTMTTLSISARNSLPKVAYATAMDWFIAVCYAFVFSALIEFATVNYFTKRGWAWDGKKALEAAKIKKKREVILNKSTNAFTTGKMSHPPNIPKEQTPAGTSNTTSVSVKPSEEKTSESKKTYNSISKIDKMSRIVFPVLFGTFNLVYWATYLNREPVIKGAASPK
# Chain of human GABA A receptor α5β3γ2 (α5 subunit) (P28472 26-473 partner): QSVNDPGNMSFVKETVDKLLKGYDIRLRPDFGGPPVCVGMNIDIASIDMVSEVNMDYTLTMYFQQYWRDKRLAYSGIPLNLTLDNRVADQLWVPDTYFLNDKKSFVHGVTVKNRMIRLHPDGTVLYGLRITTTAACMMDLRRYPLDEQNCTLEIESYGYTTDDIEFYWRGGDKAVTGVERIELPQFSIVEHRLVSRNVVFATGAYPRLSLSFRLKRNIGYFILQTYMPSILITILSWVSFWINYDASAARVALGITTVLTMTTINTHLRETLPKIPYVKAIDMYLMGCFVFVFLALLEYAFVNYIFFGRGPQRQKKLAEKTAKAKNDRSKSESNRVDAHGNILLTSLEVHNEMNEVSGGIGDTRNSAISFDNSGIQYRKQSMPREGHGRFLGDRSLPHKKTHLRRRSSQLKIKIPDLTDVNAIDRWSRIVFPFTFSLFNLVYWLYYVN
# Chain of human GABA A receptor α5β3γ2 (α5 subunit) (P18507 40-475): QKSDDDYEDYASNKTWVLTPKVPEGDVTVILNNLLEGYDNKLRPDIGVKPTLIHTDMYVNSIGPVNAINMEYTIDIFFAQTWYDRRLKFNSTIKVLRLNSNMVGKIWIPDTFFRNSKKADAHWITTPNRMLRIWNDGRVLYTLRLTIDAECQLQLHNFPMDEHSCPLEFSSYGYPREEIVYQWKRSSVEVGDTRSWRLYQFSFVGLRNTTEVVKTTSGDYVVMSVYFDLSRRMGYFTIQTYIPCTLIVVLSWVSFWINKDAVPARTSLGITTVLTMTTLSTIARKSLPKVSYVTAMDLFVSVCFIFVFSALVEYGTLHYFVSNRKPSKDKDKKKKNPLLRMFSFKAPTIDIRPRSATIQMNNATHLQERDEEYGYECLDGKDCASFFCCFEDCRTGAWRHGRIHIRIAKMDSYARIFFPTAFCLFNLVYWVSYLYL
row,Compound,Ki
1,"Cc1onc(-c2ccccc2)c1COc1ccc(Cl)nn1 [Example 1, 3-Chloro-6-(5-methyl-3-phenyl-isoxazol-4-ylmethoxy)-pyridazine]",9.6 nM
2,"Cc1onc(-c2ccccc2)c1COc1ccc(Br)nn1 [Example 2, 3-Bromo-6-(5-methyl-3-phenyl-isoxazol-4-ylmethoxy)-pyridazine]",7.6 nM
3,"Cc1ccc(OCc2c(-c3ccccc3)noc2C)nn1 [Example 4, 3-Methyl-6-(5-methyl-3-phenyl-isoxazol-4-ylmethoxy)-pyridazine]",6.2 nM
4,"CCOC(=O)c1ccc(OCc2c(-c3ccccc3)noc2C)nn1 [Example 5, 6-(5-Methyl-3-phenyl-isoxazol-4-ylmethoxy)-pyridazine-3-carboxylic acid ethyl ester]",5.5 nM
5,"COCCNC(=O)c1ccc(OCc2c(-c3ccccc3)noc2C)nn1 [Example 6, 6-(5-Methyl-3-phenyl-isoxazol-4-ylmethoxy)-pyridazine-3-carboxylic acid (2-methoxy-ethyl)-amide]",5.4 nM
6,"Cc1onc(-c2ccccc2)c1COc1ccc(C(=O)NC(C)C)nn1 [Example 7, 6-(5-Methyl-3-phenyl-isoxazol-4-ylmethoxy)-pyridazine-3-carboxylic acid isopropylamide]",5.9 nM
7,"Cc1onc(-c2ccccc2)c1COc1ccc(C(=O)NC2CC2)nn1 [Example 8, 6-(5-Methyl-3-phenyl-isoxazol-4-ylmethoxy)-pyridazine-3-carboxylic acid cyclopropylamide]",3.5 nM
8,"Cc1onc(-c2ccccc2)c1COc1ccc(C(=O)NC2CCOCC2)nn1 [Example 9, 6-(5-Methyl-3-phenyl-isoxazol-4-ylmethoxy)-pyridazine-3-carboxylic acid (tetrahydro-pyran-4-yl)-amide]",4.8 nM
9,"Cc1onc(-c2ccccc2)c1COc1ccc(C(=O)NCCO)nn1 [Example 12, 6-(5-Methyl-3-phenyl-isoxazol-4-ylmethoxy)-pyridazine-3-carboxylic acid (2-hydroxy-ethyl)-amide]",3.4 nM
10,"Cc1onc(-c2ccccc2)c1COc1ccc(C(=O)NC(C)(C)CO)nn1 [Example 13, 6-(5-Methyl-3-phenyl-isoxazol-4-ylmethoxy)-pyridazine-3-carboxylic acid (2-hydroxy-1,1-dimethyl-ethyl)-amide]",7.7 nM
11,"COc1ccc(OCc2c(-c3ccccc3)noc2C)nn1 [Example 14, 3-Methoxy-6-(5-methyl-3-phenyl-isoxazol-4-ylmethoxy)-pyridazine]",12.3 nM
12,"Cc1onc(-c2ccccc2)c1COc1ccc(N)nn1 [Example 15, 6-(5-Methyl-3-phenyl-isoxazol-4-ylmethoxy)-pyridazin-3-ylamine]",4.1 nM
13,"CC(=O)Nc1ccc(OCc2c(-c3ccccc3)noc2C)nn1 [Example 17, N-[6-(5-Methyl-3-phenyl-isoxazol-4-ylmethoxy)-pyridazin-3-yl]-acetamide]",3.9 nM
14,"Cc1onc(-c2ccccc2)c1COc1ccc(NC(=O)C(C)C)nn1 [Example 20, N-[6-(5-Methyl-3-phenyl-isoxazol-4-ylmethoxy)-pyridazin-3-yl]-isobutyramide]",7.9 nM
15,"Cc1onc(-c2ccccc2)c1COc1ccc(NC(=O)C2CC2)nn1 [Example 21, Cyclopropanecarboxylic acid [6-(5-methyl-3-phenyl-isoxazol-4-ylmethoxy)-pyridazin-3-yl]-amide]",5.3 nM
16,"Cc1onc(-c2ccccc2)c1COc1ccc(NC(=O)C2CCC2)nn1 [Example 22, Cyclobutanecarboxylic acid [6-(5-methyl-3-phenyl-isoxazol-4-ylmethoxy)-pyridazin-3-yl]-amide]",10.1 nM
17,"Cc1onc(-c2ccccc2)c1COc1ccc(NC(=O)C2CCOCC2)nn1 [Example 25, Tetrahydro-pyran-4-carboxylic acid [6-(5-methyl-3-phenyl-isoxazol-4-ylmethoxy)-pyridazin-3-yl]-amide]",8.7 nM
18,"Cc1onc(-c2ccccc2)c1COc1ccc(N2CCCC2=O)nn1 [Example 27, 1-[6-(5-Methyl-3-phenyl-isoxazol-4-ylmethoxy)-pyridazin-3-yl]-pyrrolidin-2-one]",4 nM
19,"COC(=O)C(=O)Nc1ccc(OCc2c(-c3ccccc3)noc2C)nn1 [Example 28, N-[6-(5-Methyl-3-phenyl-isoxazol-4-ylmethoxy)-pyridazin-3-yl]-oxalamic acid methyl ester]",5.1 nM
20,"Cc1onc(-c2ccccc2)c1COc1ccc(NC(=O)c2ccccc2)nn1 [Example 30, N-[6-(5-Methyl-3-phenyl-isoxazol-4-ylmethoxy)-pyridazin-3-yl]-benzamide]",13.7 nM

row,Compound,Ki
1,"Cc1onc(-c2ccccc2)c1COc1ccc(NC(=O)c2ccco2)nn1 [Example 32, Furan-2-carboxylic acid [6-(5-methyl-3-phenyl-isoxazol-4-ylmethoxy)-pyridazin-3-yl]-amide]",6.9 nM
2,"Cc1onc(-c2ccccc2)c1COc1ccc(NC(=O)c2ccno2)nn1 [Example 33, Isoxazole-5-carboxylic acid [6-(5-methyl-3-phenyl-isoxazol-4-ylmethoxy)-pyridazin-3-yl]-amide]",5.4 nM
3,"CCOC(=O)Nc1ccc(OCc2c(-c3ccccc3)noc2C)nn1 [Example 34, [6-(5-Methyl-3-phenyl-isoxazol-4-ylmethoxy)-pyridazin-3-yl]-carbamic acid ethyl ester]",8.6 nM
4,"Cc1onc(-c2ccccc2)c1COc1ccc(N2CCOCC2)nn1 [Example 36, 4-[6-(5-Methyl-3-phenyl-isoxazol-4-ylmethoxy)-pyridazin-3-yl]-morpholine]",9.4 nM
5,"CNc1ccc(OCc2c(-c3ccccc3)noc2C)nn1 [Example 37, Methyl-[6-(5-methyl-3-phenyl-isoxazol-4-ylmethoxy)-pyridazin-3-yl]-amine HCl]",6.3 nM
6,"Cc1onc(-c2ccccc2)c1COc1ccc(N(C)C)nn1 [Example 38, Dimethyl-[6-(5-methyl-3-phenyl-isoxazol-4-ylmethoxy)-pyridazin-3-yl]-amine]",8.4 nM
7,"Cc1cc(C)n(-c2ccc(OCc3c(-c4ccccc4)noc3C)nn2)n1 [Example 39, 3-(3,5-Dimethyl-pyrazol-1-yl)-6-(5-methyl-3-phenyl-isoxazol-4-ylmethoxy)-pyridazine]",5.1 nM
8,"CCOC(=O)c1cc(C)c(OCc2c(-c3ccccc3)noc2C)nn1 [Example 40, 5-Methyl-6-(5-methyl-3-phenyl-isoxazol-4-ylmethoxy)-pyridazine-3-carboxylic acid ethyl ester]",2.2 nM
9,"Cc1cc(OCc2c(-c3ccccc3)noc2C)nnc1Cl [Example 41, 3-Chloro-4-methyl-6-(5-methyl-3-phenyl-isoxazol-4-ylmethoxy)-pyridazine]",2.3 nM
10,"CCOC(=O)c1nnc(OCc2c(-c3ccccc3)noc2C)cc1C [Example 42, 4-Methyl-6-(5-methyl-3-phenyl-isoxazol-4-ylmethoxy)-pyridazine-3-carboxylic acid ethyl ester]",1.9 nM
11,"Cc1cc(OCc2c(-c3ccccc3)noc2C)nnc1C(=O)NC1CCOCC1 [Example 44, 4-Methyl-6-(5-methyl-3-phenyl-isoxazol-4-ylmethoxy)-pyridazine-3-carboxylic acid (tetrahydro-pyran-4-yl)-amide]",3.4 nM
12,"Cc1cc(OCc2c(-c3ccccc3)noc2C)nnc1C(=O)NC1CC1 [Example 45, 4-Methyl-6-(5-methyl-3-phenyl-isoxazol-4-ylmethoxy)-pyridazine-3-carboxylic acid cyclopropylamide]",1.4 nM
13,"Cc1cc(OCc2c(-c3ccccc3)noc2C)nnc1C(=O)NC(C)C [Example 46, 4-Methyl-6-(5-methyl-3-phenyl-isoxazol-4-ylmethoxy)-pyridazine-3-carboxylic acid isopropylamide]",3.6 nM
14,"CCOC(=O)c1ccc(OCc2c(-c3cccc(F)c3)noc2C)nn1 [Example 49, 6-[3-(3-Fluoro-phenyl)-5-methyl-isoxazol-4-ylmethoxy]-pyridazine-3-carboxylic acid ethyl ester]",9.6 nM
15,"CNC(=O)c1ccc(OCc2c(-c3cccc(F)c3)noc2C)nn1 [Example 50, 6-[3-(3-Fluoro-phenyl)-5-methyl-isoxazol-4-ylmethoxy]-pyridazine-3-carboxylic acid methylamide]",4.1 nM
16,"CCNC(=O)c1ccc(OCc2c(-c3cccc(F)c3)noc2C)nn1 [Example 51, 6-[3-(3-Fluoro-phenyl)-5-methyl-isoxazol-4-ylmethoxy]-pyridazine-3-carboxylic acid ethylamide]",6.1 nM
17,"Cc1onc(-c2cccc(F)c2)c1COc1ccc(C(=O)NCCO)nn1 [Example 52, 6-[3-(3-Fluoro-phenyl)-5-methyl-isoxazol-4-ylmethoxy]-pyridazine-3-carboxylic acid (2-hydroxy-ethyl)-amide]",6.6 nM
18,"Cc1onc(-c2cccc(F)c2)c1COc1ccc(C(=O)NC(C)C)nn1 [Example 54, 6-[3-(3-Fluoro-phenyl)-5-methyl-isoxazol-4-ylmethoxy]-pyridazine-3-carboxylic acid isopropylamide]",8.4 nM
19,"Cc1onc(-c2cccc(F)c2)c1COc1ccc(C(=O)NC2CC2)nn1 [Example 55, 6-[3-(3-Fluoro-phenyl)-5-methyl-isoxazol-4-ylmethoxy]-pyridazine-3-carboxylic acid cyclopropylamide]",6.7 nM
